Measurements reported in patent publication US9586951B2 (FUJIFILM Corporation, priority 2013, dated 2017).

target: T1, ATM (Homo sapiens, UniProt Q13315); assay: ATM inhibition test (phosphorylation of Chk2 generated by ionizing radiation, AlphaScreen SureFire); type: cell-based; details: phosphorylated Chk2 in NCI-H460 cells, ionizing radiation 8Gy, 1 hour after test compound treatment; read-out: ATM inhibitory activity
T1 construct: detecting phosphorylation of Chk2 in a human non-small cell lung cancer cell line NCI-H460 (ATCC company); host or cells: NCI-H460 human non-small cell lung cancer cells
Procedure, shortened: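 NCI-H460 cells, compound 1 h pre-treatment, 8Gy IR, further 1 h at 37° C in 5% CO2. Read-out: phospho-Chk2 via AlphaScreen SureFire. % inhibition relative to IR-induced signal window (irradiated vs non-irradiated drug-free wells).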

T1 sequence (Q13315 whole entry): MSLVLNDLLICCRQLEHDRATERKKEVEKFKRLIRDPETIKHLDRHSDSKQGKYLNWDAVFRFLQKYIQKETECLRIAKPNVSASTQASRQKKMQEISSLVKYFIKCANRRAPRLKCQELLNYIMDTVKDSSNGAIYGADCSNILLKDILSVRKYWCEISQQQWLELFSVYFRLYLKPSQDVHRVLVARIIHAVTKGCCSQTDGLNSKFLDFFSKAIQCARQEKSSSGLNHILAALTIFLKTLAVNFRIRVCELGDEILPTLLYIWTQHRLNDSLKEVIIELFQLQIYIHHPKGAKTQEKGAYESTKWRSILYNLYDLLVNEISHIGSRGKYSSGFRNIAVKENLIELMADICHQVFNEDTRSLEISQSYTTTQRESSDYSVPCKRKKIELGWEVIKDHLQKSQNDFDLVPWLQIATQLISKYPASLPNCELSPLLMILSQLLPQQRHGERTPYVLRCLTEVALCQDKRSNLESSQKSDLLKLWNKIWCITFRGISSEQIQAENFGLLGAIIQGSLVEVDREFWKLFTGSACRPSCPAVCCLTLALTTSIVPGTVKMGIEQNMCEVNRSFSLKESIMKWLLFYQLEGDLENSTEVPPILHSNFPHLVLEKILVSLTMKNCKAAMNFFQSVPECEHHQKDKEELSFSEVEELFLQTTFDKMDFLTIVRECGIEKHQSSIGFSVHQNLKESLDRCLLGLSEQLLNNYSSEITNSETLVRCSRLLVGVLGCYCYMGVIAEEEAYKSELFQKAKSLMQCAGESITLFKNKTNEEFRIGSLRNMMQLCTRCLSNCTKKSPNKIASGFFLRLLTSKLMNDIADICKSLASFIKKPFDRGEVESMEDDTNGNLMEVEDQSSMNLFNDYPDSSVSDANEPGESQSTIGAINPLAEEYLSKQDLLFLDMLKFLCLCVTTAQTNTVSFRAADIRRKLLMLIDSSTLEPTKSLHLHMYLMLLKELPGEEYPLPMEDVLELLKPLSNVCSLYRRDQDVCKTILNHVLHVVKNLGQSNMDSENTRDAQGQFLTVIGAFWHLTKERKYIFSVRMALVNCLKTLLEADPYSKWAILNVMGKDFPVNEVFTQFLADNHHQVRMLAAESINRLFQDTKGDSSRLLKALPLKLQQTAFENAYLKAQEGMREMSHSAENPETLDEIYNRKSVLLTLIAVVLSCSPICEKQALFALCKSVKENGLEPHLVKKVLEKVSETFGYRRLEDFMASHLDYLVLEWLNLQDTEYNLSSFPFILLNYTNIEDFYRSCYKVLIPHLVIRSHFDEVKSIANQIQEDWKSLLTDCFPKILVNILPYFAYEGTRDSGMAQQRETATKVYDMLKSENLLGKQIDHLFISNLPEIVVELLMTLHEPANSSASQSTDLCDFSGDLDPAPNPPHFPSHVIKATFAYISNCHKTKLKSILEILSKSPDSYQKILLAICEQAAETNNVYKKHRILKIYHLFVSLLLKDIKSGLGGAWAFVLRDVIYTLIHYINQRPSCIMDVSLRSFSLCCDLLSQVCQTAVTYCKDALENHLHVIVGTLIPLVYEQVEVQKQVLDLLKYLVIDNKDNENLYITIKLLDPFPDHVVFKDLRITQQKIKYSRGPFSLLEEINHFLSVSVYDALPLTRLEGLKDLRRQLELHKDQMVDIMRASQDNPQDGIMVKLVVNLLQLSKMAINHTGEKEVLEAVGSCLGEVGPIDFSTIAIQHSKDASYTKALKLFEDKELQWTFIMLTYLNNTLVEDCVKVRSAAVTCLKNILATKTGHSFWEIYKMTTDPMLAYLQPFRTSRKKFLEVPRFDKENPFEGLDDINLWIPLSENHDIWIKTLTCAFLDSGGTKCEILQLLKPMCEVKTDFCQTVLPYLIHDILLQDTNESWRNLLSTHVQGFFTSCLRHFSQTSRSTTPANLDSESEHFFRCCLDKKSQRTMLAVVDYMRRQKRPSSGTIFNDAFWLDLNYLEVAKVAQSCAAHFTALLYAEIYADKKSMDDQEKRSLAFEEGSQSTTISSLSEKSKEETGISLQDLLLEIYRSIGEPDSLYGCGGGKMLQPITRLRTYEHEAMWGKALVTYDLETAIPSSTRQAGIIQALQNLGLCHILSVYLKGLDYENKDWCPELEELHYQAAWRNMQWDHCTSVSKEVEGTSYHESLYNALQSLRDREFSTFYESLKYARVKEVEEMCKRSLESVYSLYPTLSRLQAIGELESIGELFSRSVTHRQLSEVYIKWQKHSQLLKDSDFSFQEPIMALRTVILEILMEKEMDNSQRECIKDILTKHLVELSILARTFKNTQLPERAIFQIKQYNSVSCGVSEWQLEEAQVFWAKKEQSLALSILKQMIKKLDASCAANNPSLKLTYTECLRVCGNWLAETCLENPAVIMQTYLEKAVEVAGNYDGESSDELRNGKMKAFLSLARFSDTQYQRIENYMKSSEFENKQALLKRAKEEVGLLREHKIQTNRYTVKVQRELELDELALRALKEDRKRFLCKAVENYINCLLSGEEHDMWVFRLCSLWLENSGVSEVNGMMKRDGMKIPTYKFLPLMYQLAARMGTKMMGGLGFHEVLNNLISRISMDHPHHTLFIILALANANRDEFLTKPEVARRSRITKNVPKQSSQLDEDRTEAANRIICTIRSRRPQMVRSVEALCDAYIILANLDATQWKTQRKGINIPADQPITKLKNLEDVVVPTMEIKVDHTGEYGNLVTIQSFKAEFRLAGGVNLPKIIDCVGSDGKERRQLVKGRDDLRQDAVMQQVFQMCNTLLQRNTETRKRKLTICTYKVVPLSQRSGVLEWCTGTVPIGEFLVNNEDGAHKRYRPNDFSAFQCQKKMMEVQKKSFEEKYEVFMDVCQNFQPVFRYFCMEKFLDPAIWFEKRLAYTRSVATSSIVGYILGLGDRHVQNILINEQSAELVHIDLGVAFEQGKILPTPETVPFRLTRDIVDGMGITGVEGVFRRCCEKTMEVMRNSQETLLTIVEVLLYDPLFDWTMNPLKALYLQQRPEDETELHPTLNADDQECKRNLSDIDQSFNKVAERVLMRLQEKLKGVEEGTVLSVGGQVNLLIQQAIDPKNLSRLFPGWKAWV

IC50	Molecule
100 to 500 nM	O=c1cc(N2CCOCC2)cc(-c2cccc3c2Oc2ccc(NC4CN(CCc5ccccc5)C4)cc2C3)[nH]1 [Example 2-19-6, 4-Morpholino-6-(7-((1-phenethylazetidin-3-yl)amino)-9H-xanthen-4-yl)pyridin-2(1H)-one]
500 to 2000 nM	CNCC(Nc1ccc2c(c1)Sc1cccc(-c3cc(N4CCOCC4)cc(=O)[nH]3)c1S2)c1nccc(C)n1 (stereo not drawn) [Example 1-16-5, 6-(7-((2-(Methylamino)-1-(4-methylpyrimidin-2-yl)ethyl)amino)thianthren-1-yl)-4-morpholinopyridin-2(1H)-one]
100 to 500 nM	COc1cncc(C(C)Nc2ccc3c(c2)Cc2cccc(-c4cc(N5CCOCC5)cc(=O)[nH]4)c2O3)n1 (stereo not drawn) [Example 2-14-57, 6-(7-((1-(6-Methoxypyrazin-2-yl)ethyl)amino)-9H-xanthen-4-yl)-4-morpholino pyridin-2(1H)-one]
100 to 500 nM	CC(CCN1CCCCC1)Nc1ccc2c(c1)Sc1cccc(-c3cc(N4CCOCC4)cc(=O)[nH]3)c1S2 (stereo not drawn) [Example 1-42-3, 4-Morpholino-6-(7-((4-(piperidin-1-yl)butan-2-yl)amino)thianthren-1-yl) pyridin-2(1H)-one]
100 to 500 nM	O=c1cc(N2CCOCC2)cc(-c2cccc3c2Sc2ccc(NC4CCN(CC(F)(F)F)CC4)cc2S3)[nH]1 [Example 1-25, 4-morpholino-6-(7-((1-(2,2,2-trifluoroethyl)piperidin-4-yl)amino)thianthren-1-yl)pyridin-2(1H)-one]
100 to 500 nM	CCOC(=O)c1ccc(CNc2ccc3c(c2)Sc2cccc(-c4cc(N5CCOCC5)cc(=O)[nH]4)c2S3)nc1 [Example 1-12-112, Ethyl 6-(((6-(4-morpholino-6-oxo-1,6-dihydropyridin-2-yl)thianthren-2-yl)amino)methyl)nicotinate]
500 to 2000 nM	CN1CCN(C(=O)CNc2ccc3c(c2)Sc2cccc(-c4cc(N5CCOCC5)cc(=O)[nH]4)c2S3)CC1 [Example 1-18-3]
100 to 500 nM	Cc1ccc(C(Nc2ccc3c(c2)Sc2cccc(-c4cc(N5CCOCC5)cc(=O)[nH]4)c2S3)C2CCC2)nc1 (stereo not drawn) [Example 1-12-124, 6-(7-((Cyclobutyl(5-methylpyridin-2-yl)methyl)amino)thianthren-1-yl)-4-morpholino pyridin-2(1H)-one]
100 to 500 nM	O=c1cc(N2CCOCC2)cc(-c2cccc3c2Sc2ccc(NCCc4cccnc4)cc2S3)[nH]1 [Example 1-5, 4-morpholino-6-(7-((2-(pyridin-3-yl)ethyl)amino)thianthren-1-yl)pyridin-2(1H)-one]
100 to 500 nM	O=c1cc(N2CCOCC2)cc(-c2cccc3c2Oc2ccc(NCc4cncc(C5=CCCC5)c4)cc2C3)[nH]1 [Example 2-2-61, 6-(7-(((5-(Cyclopent-1-en-1-yl)pyridin-3-yl)methyl)amino)-9H-xanthen-4-yl)-4-morpholino pyridin-2(1H)-one]
100 to 500 nM	CN(C)CCN1CCC(Nc2ccc3c(c2)Sc2cccc(-c4cc(N5CCOCC5)cc(=O)[nH]4)c2S3)CC1 [Example 1-29-2, 6-(7-((1-(2-(Dimethylamino)ethyl)piperidin-4-yl)amino)thianthren-1-yl)-4-morpholinopyridin-2(1H)-one]
100 to 500 nM	O=c1cc(N2CCOCC2)cc(-c2cccc3c2Sc2ccc(NCc4cncs4)cc2S3)[nH]1 [Example 1-12-54, 4-Morpholino-6-(7-((thiazol-5-ylmethyl)amino)thianthren-1-yl)pyridin-2 (1H)-one]
500 to 2000 nM	CC(=O)Nc1cccc(CNc2ccc3c(c2)Cc2cccc(-c4cc(N5CCOCC5)cc(=O)[nH]4)c2O3)n1 [Example 2-2-73, N-(6-(((5-(4-Morpholino-6-oxo-1,6-dihydropyridin-2-yl)-9H-xanthen-2-yl)amino)methyl)pyridin-2-yl) acetamide]
100 to 500 nM	O=c1cc(N2CCOCC2)cc(-c2cccc3c2Oc2ccc(NCc4ccccn4)cc2S3)[nH]1 [Example 4-4-24, 4-Morpholino-6-(8-((pyridin-2-ylmethyl)amino)phenoxathiin-4-yl) pyridin-2(1H)-one]
100 to 500 nM	COc1cncc(CNc2ccc3c(c2)Cc2cccc(-c4cc(N5CCOCC5)cc(=O)[nH]4)c2O3)c1 [Example 2-3-8, 6-(7-(((5-Methoxypyridin-3-yl)methyl)amino)-9H-xanthen-4-yl)-4-morpholino pyridin-2(1H)-one]
100 to 500 nM	CC(CN1CC(F)(F)C1)Nc1ccc2c(c1)Sc1cccc(-c3cc(N4CCOCC4)cc(=O)[nH]3)c1S2 (stereo not drawn) [Example 1-43-4, 6-(7-((1-(3,3-Difluoroazetidin-1-yl)propan-2-yl)amino)thianthren-1-yl)-4-morpholino pyridin-2(1H)-one]
100 to 500 nM	Cc1cnc(C(CC(C)(C)O)Nc2ccc3c(c2)Sc2cccc(-c4cc(N5CCOCC5)cc(=O)[nH]4)c2S3)cn1 (stereo not drawn) [Example 1-12-117, 6-(7-((3-Hydroxy-3-methyl-1-(5-methylpyrazin-2-yl)butyl)amino)thianthren-1-yl)-4-morpholino pyridin-2(1H)-one]

IC50	Molecule
100 to 500 nM	COc1ncccc1CNc1ccc2c(c1)Sc1cccc(-c3cc(N4CCOCC4)cc(=O)[nH]3)c1O2 [Example 4-8-9, 6-(8-(((2-Methoxypyridin-3-yl)methyl)amino)phenoxathiin-4-yl)-4-morpholino pyridin-2 (1H)-one]
100 to 500 nM	O=c1cc(N2CCOCC2)cc(-c2cccc3c2Sc2ccc(NC4CCC(N5CCOCC5)CC4)cc2S3)[nH]1 (stereo not drawn) [Example 1-36-1, 4-Morpholino-6-(7-((4-morpholinocyclohexyl)amino)thianthren-1-yl)pyridin-2(1H)-one]
500 to 2000 nM	O=c1cc(N2CCOCC2)cc(-c2cccc3c2Oc2ccc(NC4CCN(Cc5ccccn5)CC4)cc2C3)[nH]1 [Example 2-28-1, 4-Morpholino-6-(7-((1-(pyridin-2-ylmethyl)piperidin-4-yl)amino)-9H-xanthen-4-yl)pyridin-2 (1H)-one]
500 to 2000 nM	O=c1cc(N2CCOCC2)cc(-c2cccc3c2Oc2ccc(NC4CCN(Cc5ncccn5)CC4)cc2C3)[nH]1 [Example 2-28-3, 4-Morpholino-6-(7-((1-(pyrimidin-2-ylmethyl)piperidin-4-yl)amino)-9H-xanthen-4-yl)pyridin-2 (1H)-one]
100 to 500 nM	O=c1cc(N2CCOCC2)cc(-c2cccc3c2Oc2ccc(NCc4cccc(Cl)n4)cc2C3)[nH]1 [Example 2-14-2, 6-(7-(((6-Chloropyridin-2-yl)methyl)amino)-9H-xanthen-4-yl)-4-morpholino pyridin-2(1H)-one]
100 to 500 nM	Ethyl 6-(((6-(4-morpholino- 6-oxo-1,6-dihydropyridin-2- yl)thianthren-2-yl)amino) methyl)picol [Example 1-12-56]
100 to 500 nM	Cc1cnc(C(CN(C)C)Nc2ccc3c(c2)Sc2cccc(-c4cc(N5CCOCC5)cc(=O)[nH]4)c2S3)cn1 (stereo not drawn) [Example 1-32, 6-(7-((2-(dimethylamino)-1-(5-methylpyrazin-2-yl)ethyl)amino)thianthren-1-yl)-4-morpholinopyridin-2(1H)-one]
< 100 nM	Cc1ccc(C(Nc2ccc3c(c2)Sc2cccc(-c4cc(N5CCOCC5)cc(=O)[nH]4)c2S3)C2CNCCO2)nc1 (single isomer, unassigned) [Example 1-55-2, 6-(7-(((5-methylpyridin-2-yl)(morpholin-2-yl)methyl)amino)thianthren-1-yl)-4-morpholinopyridin-2(1H)-one]
500 to 2000 nM	CNc1ncc(CN2CCC(Nc3ccc4c(c3)Cc3cccc(-c5cc(N6CCOCC6)cc(=O)[nH]5)c3O4)CC2)cn1 [Example 2-28-12, 6-(7-((1-((2-(Methylamino)pyrimidin-5-yl)methyl)piperidin-4-yl)amino)-9H-xanthen-4-yl)-4-morpholino pyridin-2 (1H)-one]
100 to 500 nM	O=c1cc(N2CCOCC2)cc(-c2cccc3c2Sc2ccc(NC4CCN(Cc5ccncc5)CC4)cc2S3)[nH]1 [Example 1-24-20, 4-Morpholino-6-(7-((1-(pyridin-4-ylmethyl)piperidin-4-yl)amino)thianthren-1-yl)pyridin-2 (1H)-one]
500 to 2000 nM	COc1ccc(CNc2ccc3c(c2)Cc2cc(C)cc(-c4cc(N5CCOCC5)cc(=O)[nH]4)c2O3)cn1 [Example 2-49-1, 6-(7-(((6-Methoxypyridin-3-yl)methyl)amino)-2-methyl-9H-xanthen-4-yl)-4-morpholinopyridin-2(1H)-one]
100 to 500 nM	Cc1ccc(C(CO)Nc2ccc3c(c2)Sc2cccc(-c4cc(N5CCOCC5)cc(=O)[nH]4)c2S3)nc1 (stereo not drawn) [Example 1-12-99, 6-(7-((2-Hydroxy-1-(5-methylpyridin-2-yl)ethyl)amino)thianthren-1-yl)-4-morpholino pyridin-2(1H)-one]
500 to 2000 nM	CC(Nc1ccc2c(c1)Sc1cccc(-c3cc(N4CCOCC4)cc(=O)[nH]3)c1S2)c1cccc(CN2CCCC2)n1 (stereo not drawn) [Example 1-12-110, 4-Morpholino-6-(7-((1-(6-(pyrrolidin-1-ylmethyl)pyridin-2-yl)ethyl)amino)thianthren-1-yl)pyridin-2 (1H)-one]
< 100 nM	COCCN(C)CCC(Nc1ccc2c(c1)Sc1cccc(-c3cc(N4CCOCC4)cc(=O)[nH]3)c1S2)c1ccc(C)cn1 (single isomer, unassigned) [Example 10-3-3, 6-(7-((3-((2-Methoxyethyl) (methyl)amino)-1-(5-methylpyridin-2-yl)propyl)amino)thiarnthren-l-yl)-4-morpholino pyridin-2(1H)-one]
100 to 500 nM	N#Cc1cccc(CNc2ccc3c(c2)Cc2cccc(-c4cc(N5CCOCC5)cc(=O)[nH]4)c2O3)c1 [Example 2-3-15, 3-(((5-(4-Morpholino-6-oxo-1,6-dihydropyridin-2-yl)-9H-xanthen-2-yl)amino)methyl) benzonitrile]
100 to 500 nM	CC1CCCCN1CC(CO)Nc1ccc2c(c1)Sc1cccc(-c3cc(N4CCOCC4)cc(=O)[nH]3)c1S2 (single isomer, unassigned) [Example 1-37-6, 6-(7-((1-Hydroxy-3-(2-methylpiperidin-1-yl)propan-2-yl)amino)thianthren-1-yl)-4-morpholino pyridin-2(1H)-one]
